Test results from patent publication US7368578B2, “Five-membered heterocyclic compounds” (Takeda Pharmaceutical Company Limited, priority 2002, dated 2008).

Legend:
[1] = target: T1, human PPARγ1 (Homo sapiens, UniProt P37231); experiment: Human PPARγ1 antagonist assay (luciferase reporter in PPARγ:RXRα:4ERPP/CHO-K1 cells); assay type: cell-based; conditions: 10 nM compound A as stimulant, luciferase activity, 24 hrs, read-out: Inhibitory rate (%); for inhibition at 1 µM: test compound 10^−6 M
T1 construct: expressed in transfected cells; host or cells: CHO-K1 cells stably transfected with pVgRXR2-hPPARγ and reporter plasmid pGL3-4ERPP-TK neo
T1 sequence (P37231 1-477 isoform P37231-2): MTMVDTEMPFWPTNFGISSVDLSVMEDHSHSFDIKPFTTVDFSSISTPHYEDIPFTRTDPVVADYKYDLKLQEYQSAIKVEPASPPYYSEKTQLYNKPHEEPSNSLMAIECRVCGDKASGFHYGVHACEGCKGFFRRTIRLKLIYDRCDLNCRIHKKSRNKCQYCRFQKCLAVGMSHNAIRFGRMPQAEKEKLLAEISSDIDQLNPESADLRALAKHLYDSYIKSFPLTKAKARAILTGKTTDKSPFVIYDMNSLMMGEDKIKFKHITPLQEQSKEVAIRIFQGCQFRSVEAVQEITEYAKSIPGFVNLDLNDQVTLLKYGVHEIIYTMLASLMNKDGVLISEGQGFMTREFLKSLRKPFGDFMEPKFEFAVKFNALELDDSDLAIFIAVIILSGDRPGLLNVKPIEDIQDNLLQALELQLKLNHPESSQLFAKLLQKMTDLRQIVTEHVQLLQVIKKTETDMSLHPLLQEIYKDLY
T1 sequence (P19793 1-462 partner): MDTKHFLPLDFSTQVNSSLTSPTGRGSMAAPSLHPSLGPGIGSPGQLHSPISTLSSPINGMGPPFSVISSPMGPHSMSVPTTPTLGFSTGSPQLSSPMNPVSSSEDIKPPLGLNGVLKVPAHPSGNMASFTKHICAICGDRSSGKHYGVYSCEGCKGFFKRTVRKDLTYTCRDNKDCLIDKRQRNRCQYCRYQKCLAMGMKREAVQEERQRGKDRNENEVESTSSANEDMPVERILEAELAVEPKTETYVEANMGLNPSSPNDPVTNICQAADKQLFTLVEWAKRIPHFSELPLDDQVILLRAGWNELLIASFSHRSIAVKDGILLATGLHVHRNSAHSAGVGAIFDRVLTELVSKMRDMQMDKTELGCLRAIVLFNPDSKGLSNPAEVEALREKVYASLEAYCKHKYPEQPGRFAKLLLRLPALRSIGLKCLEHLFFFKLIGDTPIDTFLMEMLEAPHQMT
Procedure: PPARγ:RXRα:4ERPP/CHO-K1 cells (obtained in Reference Example 5a) cultured in Ham's F-12 medium (GIBCO, Inc.) supplemented with 10% fetal bovine serum (TRACE SCIENTIFIC, Ltd.) were seeded in a well of a 96 well white plate at 2×10^4 cells/well and cultured under 37° C. 5% CO2 conditions for 24 hrs. After removal of the medium, Ham's F-12 medium (GIBCO) containing 60 μl of 0.1% BSA (not containing fatty acid) (Wako Pure Chemical Industries, Ltd.), 20 μl of 10^−5M or 10^−6 M test compound and 20 μl of compound A having a final concentration of 10 nM as a stimulant were added, and the cells were cultured under 37° C. 5% CO2 conditions for 24 hrs. After removal of the medium, 40 μl of Pickagene LT7.5 (Wako Pure Chemical Industries, Ltd.) 2-fold diluted with HBSS (HANKS' BALANCED SALT SOLUTION) (BIO WHITTAKER Inc.) was added. After stirring, luciferase activity was measured using 1420 ARVO Multilabel Counter (Wallac, Inc.). In addition, a test similar to the above was conducted for the non-use of the aforementioned test compound alone and for the non-use of the aforementioned test compound and compound A to determine the luciferase activity.
The human PPARγ1 antagonistic activity of the test compound was evaluated using percentages (% inhibition) wherein the luciferase activity when 10 nM compound A alone was added was 0%, and the luciferase activity when the test compound and compound A were not added was 100%. The concentration of the test compound was 10^−5 M for the compounds of Example 42 and 315 and 10^−6 M for other test compounds.
After a CHO-K1 cell cultured in a cell culture flask (150 cm^2) (produced by Corning Costar Corporation, USA) containing Ham's F-12 medium (produced by Life Technologies, Inc., USA) supplemented with 10% fetal bovine serum (produced by Life Technologies, Inc., USA) was detached by treating with 0.5 g/L trypsin-0.2 g/L EDTA (ethylenediaminetetraacetic acid) (produced by Life Technologies, Inc., USA), the cell was washed with PBS (phosphate-buffered saline) (produced by Life Technologies, Inc., USA), centrifuged (1000 rpm, 5 minutes), and then suspended in PBS. Subsequently, the DNA was introduced into the cells under the conditions shown below using GENE PULSER (produced by Bio-Rad Laboratories, USA).
Namely, to a cuvette having a 0.4 cm gap, added were 8×10^6 cells and 10 μg of plasmid pVgRXR2-hPPARγ obtained in Reference Example 4a and 10 μg of reporter plasmid pGL3-4ERPP-TK neo obtained in Reference Example 2a, which was subjected to electroporation at the voltage of 0.25 kV under the capacitance of 960 μF. Subsequently, the cell was transferred into a Ham's F-12 medium containing 10% fetal bovine serum and cultured for 24 hours and then the cells were detached again and centrifuged, and then suspended in HAM F12 medium containing 10% fetal bovine serum supplemented with 500 μg/ml of GENETICIN (produced by Life Technologies, Inc., USA) and 250 μg/ml of ZEOCIN (produced by Invitrogen, USA). The obtained suspension was diluted to the density of 10^4 cells/ml and inoculated to a 96-well plate (produced by Corning Costar Corporation, USA), which was cultured in a CO2 gas incubator at 37° C., whereby obtaining a GENETICIN- and ZEOCIN-resistant transformant. Subsequently, after the transformant cell line thus obtained was cultured in a 24-well plate (produced by Corning Costar Corporation, USA), selected was a cell line in which the luciferase was expressed and induced, i.e., PPARγ:RXRα:4ERPP/CHO-K1 cell by the addition of 10 μM pioglitazone hydrochloride.

SMILES | inhibition at 1 µM [1] | melting point | inhibition at 10 µM ([1]; test compound 10^−5 M)
CCOP(=O)(/C=C/c1cn(-c2ccccc2)nc1OCc1ccc(OCc2nc(-c3ccccc3)oc2C)c(OC)c1)OCC [Example 146, diethyl (E)-2-[3-({3-methoxy-4-[(5-methyl-2-phenyl-1,3-oxazol-4-yl)methoxy]benzyl}oxy)-1-phenyl-1H-pyrazol-4-yl]ethenylphosphonate] | 111% | 92 to 93 °C | –
CCOP(=O)(/C=C/c1cn(-c2ccccc2)nc1OCc1ccc(OCc2csc(N3CCOCC3)n2)c(OC)c1)OCC [Example 191, diethyl (E)-2-{3-[(3-methoxy-4-{[2-(morpholin-4-yl)-1,3-thiazol-4-yl]methoxy}benzyl)oxy]-1-phenyl-1H-pyrazol-4-yl}ethenylphosphonate] | 79% | 93 to 94 °C | –
CCOP(=O)(/C=C/c1cn(-c2ccccc2)nc1OCc1ccc(OCc2nc(-c3cccc(C(=O)O)c3)oc2C)c(OC)c1)OCC [Example 203, 3-[4-({4-[({4-[(E)-2-(diethoxyphosphoryl)ethenyl]-1-phenyl-1H-pyrazol-3-yl}oxy)methyl]-2-methoxyphenoxy}methyl)-5-methyl-1,3-oxazol-2-yl]benzoic acid] | 111% | 148 to 149 °C | –
CCOP(=O)(/C=C/c1cn(-c2ccccc2)nc1OCc1ccc(OCc2nc(-c3cccc(C(=O)OC)c3)oc2C)c(OC)c1)OCC [Example 211, methyl 3-[4-({4-[({4-[(E)-2-(diethoxyphosphoryl)ethenyl]-1-phenyl-1H-pyrazol-3-yl}oxy)methyl]-2-methoxyphenoxy}methyl)-5-methyl-1,3-oxazol-2-yl]benzoate] | 110% | 141 to 142 °C | –
CCOP(=O)(/C=C/c1cn(-c2ccccc2)nc1OCc1ccc(OCc2nc(-c3cccc(C(N)=O)c3)oc2C)c(OC)c1)OCC [Example 239, diethyl (E)-2-(3-{[4-({2-[3-(carbamoyl)phenyl]-5-methyl-1,3-oxazol-4-yl}methoxy)-3-methoxybenzyl]oxy}-1-phenyl-1H-pyrazol-4-yl)ethenylphosphonate] | 116% | 127 to 128 °C | –
CCOP(=O)(/C=C/c1cn(-c2ccccc2)nc1OCc1ccc(OCc2nc(-c3ccc(OC)c(C(=O)O)c3)oc2C)c(OC)c1)OCC [Example 252, 5-{4-({4-[({4-[(E)-2-(diethoxyphosphoryl)ethenyl]-1-phenyl-1H-pyrazol-3-yl}oxy)methyl]-2-methoxyphenoxy}methyl)-5-methyl-1,3-oxazol-2-yl}-2-methoxybenzoic acid] | 111% | 171 to 172 °C | –
CCOP(=O)(/C=C/c1cn(-c2ccccc2)nc1OCc1ccc(OCc2nc(/C=C/C(=O)O)oc2C)c(OC)c1)OCC [Example 315, (2E)-3-[4-({4-[({4-[(E)-2-(diethoxyphosphoryl)ethenyl]-1-phenyl-1H-pyrazol-3-yl}oxy)methyl]-2-methoxyphenoxy}methyl)-5-methyl-1,3-oxazol-2-yl]-2-propenoic acid] | – | 89 to 90 °C | 112%

Further lines, with some results ahead:

inhibition at 1 µM [1] | SMILES | melting point | inhibition at 10 µM ([1]; test compound 10^−5 M)
96% | COc1cc(COc2nn(-c3ccccc3)cc2/C=C/P(=O)(OC(C)C)OC(C)C)ccc1OCc1nc(-c2ccco2)oc1C [Example 145, diisopropyl (E)-2-{3-[(4-{[2-(2-furyl)-5-methyl-1,3-oxazol-4-yl]methoxy}-3-methoxybenzyl)oxy]-1-phenyl-1H-pyrazol-4-yl}ethenylphosphonate] | 152 to 153 °C | –
82% | COc1cc(COc2nn(-c3ccccc3)cc2/C=C/c2csc(C)n2)ccc1OCc1nc(-c2ccco2)oc1C [Example 150 (E form), 2-(2-furyl)-4-({2-methoxy-4-[({4-[(E)-2-(2-methyl-1,3-thiazol-4-yl)ethenyl]-1-phenyl-1H-pyrazol-3-yl}oxy)methyl]phenoxy}methyl)-5-methyl-1,3-oxazole] | 111 to 112 °C | –
66% | CCC(=O)/C=C/c1cn(-c2ccccc2)nc1OCc1ccc(OCc2nc(-c3ccco3)oc2C)c(OC)c1 [Example 156, (1E)-1-{3-[(4-{[2-(2-furyl)-5-methyl-1,3-oxazol-4-yl]methoxy}-3-methoxybenzyl)oxy]-1-phenyl-1H-pyrazol-4-yl}-1-penten-3-one] | 167 to 168 °C | –
112% | CCc1nc(/C=C/c2cn(-c3ccccc3)nc2OCc2ccc(OCc3nc(-c4cccc(C(=O)O)c4)oc3C)c(OC)c2)cs1 [Example 224, 3-[4-({4-[({4-[(E)-2-(2-ethyl-1,3-thiazol-4-yl)ethenyl]-1-phenyl-1H-pyrazol-3-yl}oxy)methyl]-2-methoxyphenoxy}methyl)-5-methyl-1,3-oxazol-2-yl]benzoic acid] | 190 to 191 °C | –
69% | COc1cc(COc2nn(-c3ccccc3)cc2/C=C/C#N)ccc1OCc1nc(-c2ccccc2)oc1C [Example 282, (E)-3-(3-{[3-methoxy-4-(5-methyl-2-phenyl-1,3-oxazol-4-ylmethoxy)benzyl]oxy}-1-phenyl-1H-pyrazol-4-yl)-2-propenonitrile] | 184 to 185 °C | –
107% | CCOC(=O)/C=C/c1cn(-c2ccccc2)nc1OCc1ccc(OCc2nc(-c3ccccc3)oc2C)c(OC)c1 [Example 284, ethyl (E)-3-(3-{[3-methoxy-4-(5-methyl-2-phenyl-1,3-oxazol-4-ylmethoxy)benzyl]oxy}-1-phenyl-1H-pyrazol-4-yl)-2-propenoate] | 194 to 195 °C | –
108% | CCc1nc(/C=C/c2cn(-c3ccccc3)nc2OCc2ccc(OCc3nc(-c4cccc(C(=O)O)c4)oc3C)c(OC)c2)co1 [Example 307] | 169 to 171 °C | –
